Patent EP4671246A1, “6-ALKOXYPYRAZOLOPYRIMIDINE COMPOUND AND PHARMACEUTICAL USE THEREOF” (Japan Tobacco Inc., priority 2023, dated 2024)

biological target: T1, NLRP3 inflammasome (Homo sapiens, UniProt Q96P20); assay: Evaluation of NLRP3 inflammasome inhibitory activity (inhibition of IL-1β production in THP1-Null cells); format: cell-based; details: 0.5 µmol/L PMA overnight, 1 µg/mL Lipopolysaccharides 3 hours, Nigericin 7.5 µmol/L 1.5 hours, AlphaLISA Human IL-1β
T1 construct: host or cells: THP1-Null cells (PMA-differentiated, LPS-primed, nigericin-stimulated)
T1 sequence (Q96P20 whole entry): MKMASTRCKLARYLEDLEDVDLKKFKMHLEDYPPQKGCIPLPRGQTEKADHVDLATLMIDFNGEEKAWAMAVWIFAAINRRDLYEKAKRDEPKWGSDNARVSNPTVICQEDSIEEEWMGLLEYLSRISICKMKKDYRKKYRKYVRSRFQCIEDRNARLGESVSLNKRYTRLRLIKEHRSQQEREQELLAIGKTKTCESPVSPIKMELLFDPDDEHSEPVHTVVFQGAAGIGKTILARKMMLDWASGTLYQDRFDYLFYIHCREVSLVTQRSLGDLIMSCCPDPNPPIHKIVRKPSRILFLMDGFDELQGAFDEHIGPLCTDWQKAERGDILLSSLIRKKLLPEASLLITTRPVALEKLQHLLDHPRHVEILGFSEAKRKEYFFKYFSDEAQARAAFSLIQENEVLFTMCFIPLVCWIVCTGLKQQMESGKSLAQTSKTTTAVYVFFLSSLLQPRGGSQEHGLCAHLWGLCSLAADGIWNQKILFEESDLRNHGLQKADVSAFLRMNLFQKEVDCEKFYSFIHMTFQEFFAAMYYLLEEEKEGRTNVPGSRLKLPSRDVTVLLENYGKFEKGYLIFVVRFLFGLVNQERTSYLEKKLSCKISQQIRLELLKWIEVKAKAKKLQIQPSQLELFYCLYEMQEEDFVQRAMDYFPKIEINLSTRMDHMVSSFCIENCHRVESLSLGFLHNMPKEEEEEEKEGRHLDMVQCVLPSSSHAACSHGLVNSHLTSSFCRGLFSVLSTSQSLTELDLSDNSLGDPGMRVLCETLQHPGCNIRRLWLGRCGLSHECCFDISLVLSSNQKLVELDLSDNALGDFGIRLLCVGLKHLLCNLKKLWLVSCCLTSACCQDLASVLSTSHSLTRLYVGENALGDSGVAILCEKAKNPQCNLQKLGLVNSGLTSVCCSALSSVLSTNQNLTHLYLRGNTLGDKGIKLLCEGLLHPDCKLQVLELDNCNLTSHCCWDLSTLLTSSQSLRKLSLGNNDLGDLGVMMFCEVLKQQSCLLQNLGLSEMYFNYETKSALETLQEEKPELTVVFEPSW
Procedure: The NLRP3 inflammasome inhibitory activity of test compounds were evaluated on the basis of the inhibitory activity of the IL-1β production in THP1-Null cells (Product Number: thp-null, InvivoGen). Cells were maintained for culture in RPMI-1640 media containing 10% (v/v) fetal bovine serum, 25 mmol/L HEPES, 100 U/mL penicillin, 100 µg/mL streptomycin, 100 µg/mL normocin, and 200 µg/mL hygromycin B (set at 37°C, 5% CO2/95% air) .
Cells were suspended with media for assay containing 0.5 µmol/L PMA (RPMI-1640 media containing 10% (v/v) fetal bovine serum, 100 U/mL penicillin, and 100 µg/mL streptomycin), and the suspended cells were seeded on Corning (registered trademark) 384-well Flat Clear Bottom Black Polystyrene TC-treated Microplates (25,000 cells/25 µL/well), followed by incubation (set at 37°C, 5% CO2/95% air) overnight. The supernatant of the culture was removed, and thereto was added media for assay (25 µL/well) containing 1 µg/mL Lipopolysaccharides (Product Number: L2654, Sigma-Aldrich (registered trademark)). Then, the culture was further incubated for 3 hours (set at 37°C, 5% CO2/95% air) . The supernatant of the culture was removed. Then, a vehicle solution prepared from Opti-MEM (trademark) medium (Product Number: 31985-070, Invitrogen) was added to blank-setting wells and control-setting wells (20 µL/well), followed by incubation for 15 minutes (set at 37°C, 5% CO2/95% air). A solution containing a test compound (20 µL/well) was added to test compound-setting wells. Further, Opti-MEM (trademark) medium containing Nigericin (Product Number: N7143, Sigma-Aldrich (registered trademark)) was added to the control-setting wells and test compound-setting wells (5 µL/well), followed by incubation for 1.5 hours (set at 37°C, 5% CO2/95% air). The final concentration of Nigericin was adjusted to be 7.5 µmol/L. 5 µL/well of Opti-MEM (trademark) medium was added to the blank-setting wells. The supernatant of the culture was cryonically stored (set at -20°C) until measurement of IL-1β.
The amount of IL-1β in the culture supernatant was quantitated with AlphaLISA (registered trademark) Human IL-1β Detection Kit (Product Number: AL220C, Perkin Elmer). Fluorescence intensity was measured with a microplate reader EnSpier (Model number: 2300-00J, Perkin Elmer) or EnSight (Model number: HH34000000, Perkin Elmer) according to procedure manuals attached thereto. Inhibition rates of the test compound-setting wells were calculated on the basis of 100% for the blank-setting wells and 0% for the control-setting wells. IC50 values (i.e., 50% inhibitory concentrations) of the test compounds were calculated by logistic regression analysis.

Row | Structure (SMILES) | IC50
1 | Cc1cc(C)c(-n2cc3c(=O)[nH]c(OCC(F)(F)F)nc3n2)c(C)c1 [Example 6] | 180 nM
2 | Cc1cc(Br)cc(C)c1-n1cc2c(=O)[nH]c(O[C@H]3CCOC3)nc2n1 [Example 37] | 13 nM
3 | Cc1cc(Br)cc(C)c1-n1cc2c(=O)[nH]c(OC(C)C)nc2n1 [Example 33] | 24 nM
4 | Cc1cc(C)c(-n2cc3c(=O)[nH]c(OC(C)C)nc3n2)c(C)c1 [Example 5] | 34 nM
5 | COc1nc2nn(-c3c(C)cc(Br)cc3OC(F)F)cc2c(=O)[nH]1 [Example 104] | 13 nM
6 | COCc1cc(Br)ccc1-n1cc2c(=O)[nH]c(OC)nc2n1 [Example 41] | 70 nM
7 | COCc1cc(C2CC2)cc(C)c1-n1cc2c(=O)[nH]c(OC)nc2n1 [Example 92] | 21 nM
8 | Cc1cc(Br)cc(C)c1-n1cc2c(=O)[nH]c(OCCCS(=O)(=O)C(C)C)nc2n1 [Example 58] | 6 nM
9 | Cc1cc(Br)cc(C)c1-n1cc2c(=O)[nH]c(OCCCCO)nc2n1 [Example 113] | 14 nM
10 | COc1nc2nn(-c3c(C)cc(Br)cc3C)cc2c(=O)[nH]1 [Example 12, 2-(4-bromo-2,6-dimethylphenyl)-6-methoxy-2,5-dihydro-4H-pyrazolo[3,4-d]pyrimidin-4-one] | 9 nM
11 | COc1nc2nn(-c3c(C)cc(OC)c(Br)c3C)cc2c(=O)[nH]1 [Example 100] | 690 nM
12 | Cc1cc(Br)cc(C)c1-n1cc2c(=O)[nH]c(OCCCS(C)(=O)=O)nc2n1 [Example 35] | 7 nM
13 | Cc1cc(Br)cc(C)c1-n1cc2c(=O)[nH]c(OCCCC#N)nc2n1 [Example 114] | 19 nM
14 | Cc1cc(C2CC2)cc(C)c1-n1cc2c(=O)[nH]c(OCCCS(=O)(=O)C(C)(C)C)nc2n1 [Example 74] | 3 nM
15 | COc1nc2nn(-c3c(C)cc(F)cc3C)cc2c(=O)[nH]1 [Example 90] | 740 nM
16 | Cc1cc(Br)cc(C)c1-n1cc2c(=O)[nH]c(OCCCS(=O)(=O)C(C)(C)C)nc2n1 [Example 64] | 7 nM
17 | Cc1cc(Br)cc(C)c1-n1cc2c(=O)[nH]c(OCC(F)F)nc2n1 [Example 67] | 43 nM
18 | [2H]C([2H])([2H])Oc1nc2nn(-c3ccc(C(F)(F)F)cc3OC([2H])([2H])[2H])cc2c(=O)[nH]1 [Example 10] | 61 nM
19 | COc1nc2nn(-c3ccc(Br)cc3C(F)(F)F)cc2c(=O)[nH]1 [Example 43] | 38 nM
20 | COc1nc2nn(-c3c(C)cc(C)cc3C)cc2c(=O)[nH]1 [Example 8] | 37 nM
21 | COc1nc2nn(-c3ccc(Br)cc3C(F)F)cc2c(=O)[nH]1 [Example 59] | 55 nM
22 | CCOc1nc2nn(-c3c(C)cc(Br)cc3C)cc2c(=O)[nH]1 [Example 34] | 12 nM
23 | Cc1cc(Br)cc(C)c1-n1cc2c(=O)[nH]c(OCCC3COC3)nc2n1 [Example 30] | 51 nM

Row | Structure (SMILES) | IC50
24 | COc1nc2nn(-c3c(C)cc(Cl)cc3C)cc2c(=O)[nH]1 [Example 57] | 58 nM
25 | CCOc1cc(C)c(-n2cc3c(=O)[nH]c(OC)nc3n2)c(C)c1 [Example 94] | 200 nM
26 | COc1nc2nn(-c3c(C)cc(C4(O)CCC4)cc3C)cc2c(=O)[nH]1 [Example 27] | 990 nM
27 | COc1nc2nn(-c3c(C)cc(Br)c(OC)c3C)cc2c(=O)[nH]1 [Example 96] | 430 nM
28 | Cc1cc(Br)cc(C)c1-n1cc2c(=O)[nH]c(OCCC(C)(C)C#N)nc2n1 [Example 109] | 67 nM
29 | COc1cc(C)c(-n2cc3c(=O)[nH]c(OC)nc3n2)c(C)c1 [Example 13, 6-methoxy-2-(4-methoxy-2,6-dimethylphenyl)-2,5-dihydro-4H-pyrazolo[3,4-d]pyrimidin-4-one] | 22 nM
30 | COc1nc2nn(-c3c(C)cc(C4CC4)cc3C)c(C#N)c2c(=O)[nH]1 [Example 119] | 23 nM
31 | Cc1cc(C2CC2)cc(C)c1-n1cc2c(=O)[nH]c(OCC(F)(F)CO)nc2n1 [Example 106] | 29 nM
32 | COCCOc1nc2nn(-c3c(C)cc(Br)cc3C)cc2c(=O)[nH]1 [Example 107] | 23 nM
33 | COc1nc2nn(-c3ccc(C)cc3C)cc2c(=O)[nH]1 [Example 2] | 79 nM
34 | COc1nc2nn(-c3c(C)cc(C4CC4)cc3F)cc2c(=O)[nH]1 [Example 28] | 15 nM
35 | COc1nc2nn(-c3cc(C)c(Cl)cc3C)cc2c(=O)[nH]1 [Example 26] | 1200 nM
36 | Cc1cc(Br)cc(C)c1-n1cc2c(=O)[nH]c(OCCCO)nc2n1 [Example 99] | 12 nM
37 | Cc1cc(Br)cc(C)c1-n1cc2c(=O)[nH]c(OC[C@@H]3CCOC3)nc2n1 [Example 112] | 38 nM
38 | COc1nc2nn(-c3c(C)cc(C4CC4)cc3C)c(I)c2c(=O)[nH]1 [Example 79] | 8 nM
39 | Cc1cc(C2CC2)cc(C)c1-n1cc2c(=O)[nH]c(OCC(F)F)nc2n1 [Example 68] | 25 nM
40 | COc1nc2nn(-c3ccc(OC(F)F)cc3C(F)(F)F)cc2c(=O)[nH]1 [Example 63] | 80 nM
41 | COc1nc2nn(-c3ccc(C4CC4)cc3OC)cc2c(=O)[nH]1 [Example 40] | 49 nM
42 | COc1nc2nn(-c3c(C)cc(C4CC4(F)F)cc3C)cc2c(=O)[nH]1 (racemic) [Example 120] | 88 nM
43 | Cc1c(-n2cc3c(=O)[nH]c(OCC4CC4)nc3n2)c(C(F)(F)F)nn1C(C)C [Example 102] | 670 nM
44 | COc1nc2nn(-c3c(C)cc(Br)cc3CF)cc2c(=O)[nH]1 [Example 115] | 13 nM
45 | COc1nc2nn(-c3c(C)cc(C4CC4)cc3OC(F)F)cc2c(=O)[nH]1 [Example 105] | 14 nM
46 | CCc1cc(Br)cc(C)c1-n1cc2c(=O)[nH]c(OC)nc2n1 [Example 85] | 12 nM

Row | Structure (SMILES) | IC50
47 | COc1nc2nn(-c3c(C)cc(Br)cc3C#N)cc2c(=O)[nH]1 [Example 101] | 2400 nM
48 | COc1nc2nn(-c3cc4c(cc3Cl)OCCC4)cc2c(=O)[nH]1 [Example 103] | 110 nM
49 | COc1nc2nn(-c3c(C)cc(C(C)(C)F)cc3C)cc2c(=O)[nH]1 [Example 118] | 73 nM
50 | CCc1cc(Br)ccc1-n1cc2c(=O)[nH]c(OC)nc2n1 [Example 70] | 25 nM
51 | COc1nc2nn(-c3c(C)cc(C(C)(F)F)cc3C)cc2c(=O)[nH]1 [Example 71] | 42 nM
52 | COc1nc2nn(-c3ccc(C4CC4)cc3C3CC3)cc2c(=O)[nH]1 [Example 56] | 18 nM
53 | COc1nc2nn(-c3c(C(F)(F)F)nn(C(C)C)c3C)cc2c(=O)[nH]1 [Example 98] | 500 nM
54 | COc1nc2nn(-c3c(C)cc(C4CC4)cc3OC)cc2c(=O)[nH]1 [Example 29] | 54 nM
55 | Cc1cc(C)c(-n2cc3c(=O)[nH]c(OCC4CC4)nc3n2)c(C)c1 [Example 3] | 9 nM
56 | CCOc1nc2nn(-c3c(C)cc(OC)cc3C)cc2c(=O)[nH]1 [Example 51] | 27 nM
57 | COc1nc2nn(-c3c(C)cc(C(C)(C)O)cc3C)cc2c(=O)[nH]1 [Example 31] | 2400 nM
58 | Cc1cc(C2CC2)cc(C)c1-n1cc2c(=O)[nH]c(OC3CCS(=O)(=O)CC3)nc2n1 [Example 46] | 33 nM
59 | Cc1cc(Br)cc(C)c1-n1cc2c(=O)[nH]c(OC3CCS(=O)(=O)CC3)nc2n1 [Example 44] | 43 nM
60 | COc1ccc(-n2cc3c(=O)[nH]c(OC)nc3n2)c(C(F)(F)F)c1 [Example 24] | 53 nM
61 | Cc1cc(Br)cc(C)c1-n1cc2c(=O)[nH]c(OC3COC3)nc2n1 [Example 121] | 2400 nM
62 | COc1nc2nn(-c3c(C)cc(Br)cc3C)cc2c(=O)n1C [Example 23] | 680 nM
63 | CCc1cc(C2CC2)ccc1-n1cc2c(=O)[nH]c(OC)nc2n1 [Example 80] | 17 nM
64 | Cc1cc(Br)cc(C)c1-n1cc2c(=O)[nH]c(OC3CCC(S(C)(=O)=O)CC3)nc2n1 (centres unmarked) [Example 52] | 59 nM
65 | COc1nc2nn(-c3c(C)cc(OC(F)F)cc3C)cc2c(=O)[nH]1 [Example 39, 2-(4-(difluoromethoxy)-2,6-dimethylphenyl)-6-methoxy-2,5-dihydro-4H-pyrazolo[3,4-d]pyrimidin-4-one] | 18 nM
66 | COc1nc2nn(-c3ccc(Br)cc3C)cc2c(=O)[nH]1 [Example 69] | 57 nM
67 | Cc1cc(Br)cc(C)c1-n1cc2c(=O)[nH]c(OCC(C)(C)O)nc2n1 [Example 21] | 74 nM
68 | Cc1cc(C2CC2)cc(C)c1-n1cc2c(=O)[nH]c(OCCCO)nc2n1 [Example 116] | 11 nM
